Experimental findings from ChEMBL document CHEMBL1909046, “DrugMatrix in vitro pharmacology data” are described below.

Experiment [1] deals with Protein kinase C alpha type (Homo sapiens, UniProt P17252). Type of experiment: cell-based. The note with it: sf9.
Experiment [2] deals with Beta-3 adrenergic receptor (Homo sapiens, UniProt P13945). The experiment in a line: DRUGMATRIX: Adrenergic beta3 radioligand binding (ligand: [125I] Cyanopindolol). The format is cell membranes, HEK293, Membrane. Conditions: Not Active = under 50% inhibition at 10 µM.
The target of experiment [3] is Epidermal growth factor receptor (Homo sapiens, UniProt P00533). The experiment in a line: DRUGMATRIX: Protein Tyrosine Kinase, EGF Receptor enzyme inhibition (substrate: Poly(Glu:Tyr)). Type of experiment: cell-based, Insect cells. Conditions: Not Active = under 50% inhibition at 10 µM.
The target in a further experiment is T1, Progesterone receptor (Bos taurus, UniProt Q690N0).
T1 sequence (Q690N0 whole entry): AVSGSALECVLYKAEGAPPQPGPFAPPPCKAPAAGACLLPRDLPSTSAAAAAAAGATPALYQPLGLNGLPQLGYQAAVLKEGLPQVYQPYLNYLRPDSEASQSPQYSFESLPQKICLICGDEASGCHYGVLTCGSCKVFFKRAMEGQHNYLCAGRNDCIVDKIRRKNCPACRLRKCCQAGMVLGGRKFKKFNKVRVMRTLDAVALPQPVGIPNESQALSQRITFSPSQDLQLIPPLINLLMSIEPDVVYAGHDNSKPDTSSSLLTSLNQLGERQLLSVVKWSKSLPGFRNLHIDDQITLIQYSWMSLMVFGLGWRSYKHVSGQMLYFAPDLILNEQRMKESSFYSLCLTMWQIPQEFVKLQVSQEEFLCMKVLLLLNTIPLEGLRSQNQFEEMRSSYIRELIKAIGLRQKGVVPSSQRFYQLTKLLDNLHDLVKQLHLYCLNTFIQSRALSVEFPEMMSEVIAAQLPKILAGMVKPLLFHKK
The experiment in a line: DRUGMATRIX: Progesterone radioligand binding (ligand: [3H] R-5020). The format is tissue-based, Uterus. Conditions: Not Active = under 50% inhibition at 10 µM; for Ki: read-out: Ki.

For experiment [4], the target named is Receptor tyrosine-protein kinase erbB-2 (Homo sapiens, UniProt P04626). The experiment in a line: biochemical. Type of experiment: cell-based, Insect cells. Conditions: insect cells.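 Also: inhibition of HER2 kinase enzyme activity, measured with Poly(Glu:Tyr) as the phosphorylation substrate; in other assays of this panel Not Active means under 50% inhibition at 10 µM.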
Receptor tyrosine-protein kinase erbB-2, sequence (P04626 whole entry): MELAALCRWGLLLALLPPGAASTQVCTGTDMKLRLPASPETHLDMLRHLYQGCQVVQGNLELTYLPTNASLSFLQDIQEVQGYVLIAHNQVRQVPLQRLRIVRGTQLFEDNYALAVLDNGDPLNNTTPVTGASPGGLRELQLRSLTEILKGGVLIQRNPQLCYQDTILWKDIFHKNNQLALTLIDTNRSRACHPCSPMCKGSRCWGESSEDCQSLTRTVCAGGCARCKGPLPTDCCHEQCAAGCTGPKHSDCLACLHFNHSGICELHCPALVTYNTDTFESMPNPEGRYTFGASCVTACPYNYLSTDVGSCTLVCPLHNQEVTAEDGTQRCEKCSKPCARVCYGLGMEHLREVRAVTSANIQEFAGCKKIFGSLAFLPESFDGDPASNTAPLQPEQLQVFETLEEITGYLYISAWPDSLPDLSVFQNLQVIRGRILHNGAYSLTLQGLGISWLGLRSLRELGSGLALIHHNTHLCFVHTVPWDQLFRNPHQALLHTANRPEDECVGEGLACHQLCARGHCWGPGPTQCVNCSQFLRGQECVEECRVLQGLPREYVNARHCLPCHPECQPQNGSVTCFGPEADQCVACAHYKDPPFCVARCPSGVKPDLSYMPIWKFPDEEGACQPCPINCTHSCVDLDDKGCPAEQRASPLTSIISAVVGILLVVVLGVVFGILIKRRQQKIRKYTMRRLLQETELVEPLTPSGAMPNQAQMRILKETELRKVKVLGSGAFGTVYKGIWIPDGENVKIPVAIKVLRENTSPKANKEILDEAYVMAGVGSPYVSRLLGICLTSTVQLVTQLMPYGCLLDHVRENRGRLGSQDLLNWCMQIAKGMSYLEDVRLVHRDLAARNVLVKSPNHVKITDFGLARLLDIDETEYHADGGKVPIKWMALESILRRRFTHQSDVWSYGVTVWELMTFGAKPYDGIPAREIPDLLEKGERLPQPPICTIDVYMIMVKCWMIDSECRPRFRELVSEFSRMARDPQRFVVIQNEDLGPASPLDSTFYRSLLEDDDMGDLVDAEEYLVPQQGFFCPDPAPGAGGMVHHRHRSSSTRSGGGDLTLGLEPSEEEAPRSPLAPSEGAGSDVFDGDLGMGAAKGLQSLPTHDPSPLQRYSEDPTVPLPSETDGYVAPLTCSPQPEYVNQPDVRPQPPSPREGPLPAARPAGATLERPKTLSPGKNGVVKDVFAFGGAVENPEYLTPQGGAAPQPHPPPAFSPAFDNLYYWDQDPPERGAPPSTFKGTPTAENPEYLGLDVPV

Beta-3 adrenergic receptor, sequence (P13945 whole entry): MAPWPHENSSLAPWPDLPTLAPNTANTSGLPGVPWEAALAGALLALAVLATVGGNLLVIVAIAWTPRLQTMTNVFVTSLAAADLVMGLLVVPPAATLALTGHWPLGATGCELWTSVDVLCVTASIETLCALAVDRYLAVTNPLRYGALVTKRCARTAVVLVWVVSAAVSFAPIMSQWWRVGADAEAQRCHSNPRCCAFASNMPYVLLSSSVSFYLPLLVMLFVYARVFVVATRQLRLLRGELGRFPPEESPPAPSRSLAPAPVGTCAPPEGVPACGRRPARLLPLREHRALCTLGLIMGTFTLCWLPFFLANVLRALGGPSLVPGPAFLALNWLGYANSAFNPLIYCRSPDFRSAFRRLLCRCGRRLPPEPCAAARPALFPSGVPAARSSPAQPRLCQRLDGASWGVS
Epidermal growth factor receptor, sequence (P00533 whole entry): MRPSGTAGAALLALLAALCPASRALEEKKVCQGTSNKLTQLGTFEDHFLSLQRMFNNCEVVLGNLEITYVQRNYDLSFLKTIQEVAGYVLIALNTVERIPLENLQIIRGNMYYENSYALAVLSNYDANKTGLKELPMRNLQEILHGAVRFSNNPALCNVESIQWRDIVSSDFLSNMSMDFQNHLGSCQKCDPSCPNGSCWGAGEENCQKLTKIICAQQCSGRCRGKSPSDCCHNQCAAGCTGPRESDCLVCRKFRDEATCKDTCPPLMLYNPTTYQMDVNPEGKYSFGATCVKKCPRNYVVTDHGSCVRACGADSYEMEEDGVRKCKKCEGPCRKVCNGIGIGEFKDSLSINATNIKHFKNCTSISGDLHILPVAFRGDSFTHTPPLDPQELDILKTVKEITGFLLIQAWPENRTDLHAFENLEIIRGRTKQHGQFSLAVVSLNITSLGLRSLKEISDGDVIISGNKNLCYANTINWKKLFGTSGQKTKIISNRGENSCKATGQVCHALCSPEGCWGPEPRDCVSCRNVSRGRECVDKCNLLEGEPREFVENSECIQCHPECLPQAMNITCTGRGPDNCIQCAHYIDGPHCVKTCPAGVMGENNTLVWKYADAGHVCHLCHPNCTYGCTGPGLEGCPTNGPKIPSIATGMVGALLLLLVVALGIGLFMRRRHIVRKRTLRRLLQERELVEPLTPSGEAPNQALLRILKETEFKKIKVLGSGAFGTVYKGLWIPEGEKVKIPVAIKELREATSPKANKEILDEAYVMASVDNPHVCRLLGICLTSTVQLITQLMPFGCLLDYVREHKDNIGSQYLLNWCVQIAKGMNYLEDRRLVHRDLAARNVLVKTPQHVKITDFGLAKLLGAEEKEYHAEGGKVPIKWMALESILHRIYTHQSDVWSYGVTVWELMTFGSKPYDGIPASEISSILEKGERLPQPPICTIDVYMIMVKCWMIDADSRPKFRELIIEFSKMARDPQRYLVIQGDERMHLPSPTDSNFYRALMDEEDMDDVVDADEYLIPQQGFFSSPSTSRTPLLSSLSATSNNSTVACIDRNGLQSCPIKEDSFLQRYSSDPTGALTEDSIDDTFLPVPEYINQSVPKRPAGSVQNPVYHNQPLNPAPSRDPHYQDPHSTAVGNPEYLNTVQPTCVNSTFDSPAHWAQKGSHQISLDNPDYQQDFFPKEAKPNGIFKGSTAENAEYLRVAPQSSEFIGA

With `O=C(O)c1cc(=O)c2c(OCC(O)COc3cccc4oc(C(=O)O)cc(=O)c34)cccc2o1` [CROMOLYN], the IC50 result (in experiment [1]; in experiment [2] (hek293); in experiment [3] (insect cells); on Progesterone receptor; in experiment [4]) was “Not Active” each time.
For the compound `O=P1(N(CCCl)CCCl)NCCCO1` (stereo not drawn) [CYCLOPHOSPHAMIDE ANHYDROUS], the concentration for half-maximal inhibition (IC50) result (in experiment [1]; in experiment [2] (hek293); in experiment [3] (insect cells); at Progesterone receptor; in experiment [4]) was “Not Active” in each case.
With `CC(=O)O[C@]1(C(C)=O)CC[C@H]2[C@@H]3C=C(Cl)C4=CC(=O)[C@@H]5C[C@@H]5[C@]4(C)[C@H]3CC[C@@]21C` [CYPROTERONE ACETATE], the half-maximal inhibitory concentration (IC50) result in experiment [1] is “Not Active”; in experiment [2] (hek293) it was “Not Active”; in experiment [3] (insect cells), “Not Active”; at Progesterone receptor (read-out: IC50) it was 37 nM; in experiment [4], “Not Active”. For the same compound, the Ki at Progesterone receptor was 4.84 nM.
`Nc1nc(N)nc(NC2CC2)n1` [CYROMAZINE]: the concentration for half-maximal inhibition (IC50) entry (in experiment [1]; in experiment [2] (hek293); in experiment [3] (insect cells); on Progesterone receptor; in experiment [4]) was “Not Active” throughout.
Turning to `C#C[C@]1(O)CC[C@H]2[C@@H]3CCC4=Cc5oncc5C[C@]4(C)[C@H]3CC[C@@]21C` [DANAZOL], the 50% inhibitory concentration (IC50) result in experiment [1] is “Not Active”; in experiment [2] (read-out: IC50), 17000 nM; in experiment [3] (insect cells), “Not Active”; at Progesterone receptor (read-out: IC50), 259 nM; in experiment [4], “Not Active”. The Ki in experiment [2] (read-out: Ki) turned out to be 12800 nM; on Progesterone receptor, 34 nM.
As for `CCN[C@@H](C)Cc1cccc(C(F)(F)F)c1` [DEXFENFLURAMINE], the 50% inhibitory concentration (IC50) entry (in experiment [1]; in experiment [2] (hek293); in experiment [3] (insect cells); on Progesterone receptor; in experiment [4]) was “Not Active” throughout.
For the compound `C[C@H](C(=O)O)c1cccc(C(=O)c2ccccc2)c1` [DEXKETOPROFEN], the IC50 result (in experiment [1]; in experiment [2] (hek293); in experiment [3] (insect cells); on Progesterone receptor; in experiment [4]) was “Not Active” throughout.
Turning to `CN1C(=O)CN=C(c2ccccc2)c2cc(Cl)ccc21` [DIAZEPAM], the half-maximal inhibitory concentration (IC50) result (in experiment [1]; in experiment [2] (hek293); in experiment [3] (insect cells); on Progesterone receptor; in experiment [4]) was “Not Active” in each case.
Take `CN1C[C@H](C(=O)N[C@]2(C)O[C@@]3(O)[C@@H]4CCCN4C(=O)[C@H](Cc4ccccc4)N3C2=O)C[C@@H]2c3cccc4[nH]cc(c34)C[C@H]21` [DIHYDROERGOTAMINE]: the 50% inhibitory concentration (IC50) result (in experiment [1]; in experiment [2] (hek293); in experiment [3] (insect cells); at Progesterone receptor; in experiment [4]) was “Not Active” throughout.
`Cc1c(N(C)CS(=O)(=O)[O-])c(=O)n(-c2ccccc2)n1C.[Na+]` [DIPYRONE SODIUM]: the half-maximal inhibitory concentration (IC50) result (in experiment [1]; in experiment [2] (hek293); in experiment [3] (insect cells); at Progesterone receptor; in experiment [4]) was “Not Active” each time.
As for `CC(CCc1ccc(O)cc1)NCCc1ccc(O)c(O)c1` (stereo not drawn) [DOBUTAMINE], the IC50 entry in experiment [1] is “Not Active”; in experiment [2] (hek293), “Not Active”; in experiment [3] (read-out: IC50), 5550 nM; on Progesterone receptor, “Not Active”; in experiment [4] it was “Not Active”.
Turning to `CCn1cc(C(=O)O)c(=O)c2cc(F)c(N3CCNCC3)nc21` [ENOXACIN], the IC50 result (in experiment [1]; in experiment [2] (hek293); in experiment [3] (insect cells); on Progesterone receptor; in experiment [4]) was “Not Active” in each case.
Regarding `CCC(=O)O[C@H]1[C@H](O[C@@H]2[C@@H](C)[C@H](O[C@H]3C[C@@](C)(OC)[C@@H](O)[C@H](C)O3)[C@@H](C)C(=O)O[C@H](CC)[C@@](C)(O)[C@H](O)[C@@H](C)C(=O)[C@H](C)C[C@@]2(C)O)O[C@H](C)C[C@@H]1N(C)C` [ERYTHROMYCIN PROPIONATE], the IC50 entry (in experiment [1]; in experiment [2] (hek293); in experiment [3] (insect cells); at Progesterone receptor; in experiment [4]) was “Not Active” throughout.

The IC50 is the midpoint of a concentration-inhibition curve. For orientation: Ki means the equilibrium dissociation constant of an inhibitor or competing ligand from its target.
